# US12448399B2, “Cereblon-based KRAS degrading PROTACs and uses related thereto” (Arvinas Operations, Inc., priority 2023, dated 2025)
# Target: T1, KRas-G12D (Homo sapiens, UniProt P01116, G12D)
# T1 construct: insert the HiBiT tag onto the N-terminus of one or more of the endogenous KRas alleles; host or cells: AsPC-1 HiBiT-KRasG12D knock-in clone (one tagged allele, two untagged KRasG12D alleles)
# Experiment: HiBiT Degradation Assay (G12D), AsPC-1 HiBiT-KRasG12D cells, 24 hr
# Assay type: cell-based
# Settings: for Dmax: ASPC1, AsPC-1 cells, maximum degradation observed; for DC50: AsPC-1 cells
# Procedure, shortened: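 AsPC-1 cells with CRISPR N-terminal HiBiT knock-in on one endogenous KRasG12D allele, treated 24 hr at 37° C with compound titrations in 0.5% DMSO. Lytic HiBiT luminescence normalized to DMSO, fitted to a 4-parameter model for DC50 and Dmax. Parallel alamar blue (4 hr) checked viability.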
# T1 sequence (P01116 1-188 isoform P01116-2 G12D): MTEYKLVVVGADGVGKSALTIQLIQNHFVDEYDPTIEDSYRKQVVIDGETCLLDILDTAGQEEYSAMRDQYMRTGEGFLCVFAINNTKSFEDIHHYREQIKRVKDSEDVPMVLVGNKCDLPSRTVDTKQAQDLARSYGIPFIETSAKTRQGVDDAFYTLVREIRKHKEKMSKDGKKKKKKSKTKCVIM
Structure (SMILES),Dmax [%],DC50 [µM]
"C#Cc1c(F)ccc2cc(O)cc(-c3ncc4c(N5CC6CCC(C5)N6)nc(OC[C@H](C)N5CCC(CC6CCN(CC7CCN(c8ccc9c(c8)n(C(C)C)c(=O)n9C8CCC(=O)NC8=O)CC7)CC6)CC5)nc4c3F)c12 (stereo partly drawn) [Compound 195, 3-[5-[4-[[4-[[1-[(1S)-2-[4-(3,8-diazabicyclo[3.2.1]octan-3-yl)-7-(8-ethynyl-7-fluoro-3-hydroxy-1-naphthyl)-8-fluoro-pyrido[4,3-d]pyrimidin-2-yl]oxy-1-methyl-ethyl]-4-piperidyl]methyl]-1-piperidyl]methyl]-1-piperidyl]-3-isopropyl-2-oxo-benzimidazol-1-yl]piperidine-2,6-dione]",> 70,< 5.1
"C#Cc1c(F)ccc2cc(O)cc(-c3ncc4c(N5CC6CCC(C5)N6)nc(OCC5(CN6CCC(CC7CCN(CC8CCN(c9ccc%10c(c9)n(C)c(=O)n%10C9CCC(=O)NC9=O)CC8)CC7)CC6)CC5)nc4c3F)c12 (stereo not shown) [Compound 196, 3-[5-[4-[[4-[[1-[[1-[[4-(3,8-diazabicyclo[3.2.1]octan-3-yl)-7-(8-ethynyl-7-fluoro-3-hydroxy-1-naphthyl)-8-fluoro-pyrido [4,3-d]pyrimidin-2-yl]oxymethyl]cyclopropyl]methyl]-4-piperidyl]methyl]-1-piperidyl]methyl]-1-piperidyl]-3-methyl-2-oxo-benzimidazol-1-yl]piperidine-2,6-dione]",> 70,< 5.1
"C#Cc1c(F)ccc2cc(O)cc(-c3ncc4c(N5CC6CCC(C5)N6)nc(OCCN5CCC6(CC5)CCN(CC5CCN(c7ccc8c(c7F)n(C)c(=O)n8C7CCC(=O)NC7=O)CC5)CC6)nc4c3F)c12 (stereo not shown) [Compound 197, 3-(5-{4-[(9-{2-[(4-{3,8-diazabicyclo[3.2.1]octan-3-yl}-7-(8-ethynyl-7-fluoro-3-hydroxynaphthalen-1-yl)-8-fluoropyrido[4,3-d]pyrimidin-2-yl)oxy]ethyl}-3,9-diazaspiro[5.5]undecan-3-yl)methyl]piperidin-1-yl}-4-fluoro-3-methyl-2-oxo-2,3-dihydro-1H-1,3-benzodiazol-1-yl)piperidine-2,6-dione]",> 70,< 5.1
"C#Cc1c(F)ccc2cc(O)cc(-c3ncc4c(N5CC6CCC(C5)N6)nc(OCCN5CCC(F)(CC6CCN(CC7CCN(c8ccc9c(c8)n(C)c(=O)n9C8CCC(=O)NC8=O)CC7)CC6)CC5)nc4c3F)c12 (stereo not shown) [Compound 198, 3-[5-[4-[[4-[[1-[2-[4-(3,8-diazabicyclo[3.2.1]octan-3-yl)-7-(8-ethynyl-7-fluoro-3-hydroxy-1-naphthyl)-8-fluoro-pyrido[4,3-d]pyrimidin-2-yl]oxyethyl]-4-fluoro-4-piperidyl]methyl]-1-piperidyl]methyl]-1-piperidyl]-3-methyl-2-oxo-benzimidazol-1-yl]piperidine-2,6-dione]",> 70,< 5.1
"C#Cc1c(F)ccc2cc(O)cc(-c3ncc4c(N5CC6CCC(C5)N6)nc(OCCN5CCC(CC6CCN(CC7CCN(c8cc(F)c9c(c8F)n(C)c(=O)n9C8CCC(=O)NC8=O)CC7)CC6)CC5)nc4c3F)c12 (stereo not shown) [Compound 199, 3-{5-[4-({4-[(1-{2-[(4-{3,8-diazabicyclo[3.2.1]octan-3-yl}-7-(8-ethynyl-7-fluoro-3-hydroxynaphthalen-1-yl)-8-fluoropyrido[4,3-d]pyrimidin-2-yl)oxy]ethyl}piperidin-4-yl)methyl]piperidin-1-yl}methyl)piperidin-1-yl]-4,7-difluoro-3-methyl-2-oxo-2,3-dihydro-1H-1,3-benzodiazol-1-yl}piperidine-2,6-dione]",> 70,< 5.1
"C#Cc1c(F)ccc2cc(O)cc(-c3ncc4c(N5CC6CCC(C5)N6)nc(OCCN5CCC(F)(CN6CCN(CC7CCN(c8ccc9c(c8)n(C)c(=O)n9C8CCC(=O)NC8=O)CC7)CC6)CC5)nc4c3F)c12 (stereo not shown) [Compound 200, 3-[5-[4-[[4-[[1-[2-[4-(3,8-diazabicyclo[3.2.1]octan-3-yl)-7-(8-ethynyl-7-fluoro-3-hydroxy-1-naphthyl)-8-fluoro-pyrido[4,3-d]pyrimidin-2-yl]oxyethyl]-4-fluoro-4-piperidyl]methyl]piperazin-1-yl]methyl]-1-piperidyl]-3-methyl-2-oxo-benzimidazol-1-yl]piperidine-2,6-dione]",> 70,< 5.1
"C#Cc1c(F)ccc2cc(O)cc(-c3ncc4c(N5CC6CCC(C5)N6)nc(OC[C@@H]5C[C@@H](OC6CCN(CC7CCN(c8cc(F)c9c(c8F)n(C)c(=O)n9C8CCC(=O)NC8=O)CC7)CC6)CN5C)nc4c3F)c12 (stereo partly drawn) [Compound 201, 3-(5-{4-[(4-{[(3R,5S)-5-{[(4-{3,8-diazabicyclo[3.2.1]octan-3-yl}-7-(8-ethynyl-7-fluoro-3-hydroxynaphthalen-1-yl)-8-fluoropyrido[4,3-d]pyrimidin-2-yl)oxy]methyl}-1-methylpyrrolidin-3-yl]oxy}piperidin-1-yl)methyl]piperidin-1-yl}-4,7-difluoro-3-methyl-2-oxo-2,3-dihydro-1H-1,3-benzodiazol-1-yl)piperidine-2,6-dione]",> 70,< 5.1
"C#Cc1c(F)ccc2cc(O)cc(-c3ncc4c(N5CC6CCC(C5)N6)nc(OCCN5CCC6(CC5)CCN(CC5CCN(c7ccc8c(c7)n(C(C)C)c(=O)n8C7CCC(=O)NC7=O)CC5)CC6)nc4c3F)c12 (stereo not shown) [Compound 202, 3-(5-{4-[(9-{2-[(4-{3,8-diazabicyclo[3.2.1]octan-3-yl}-7-(8-ethynyl-7-fluoro-3-hydroxynaphthalen-1-yl)-8-fluoropyrido[4,3-d]pyrimidin-2-yl)oxy]ethyl}-3,9-diazaspiro[5.5]undecan-3-yl)methyl]piperidin-1-yl}-2-oxo-3-(propan-2-yl)-2,3-dihydro-1H-1,3-benzodiazol-1-yl)piperidine-2,6-dione]",> 70,< 5.1
"C#Cc1c(F)ccc2cc(O)cc(-c3ncc4c(N5CC6CCC(C5)N6)nc(OCCN5CCC6(CC5)CCN(CC5CCN(c7ccc8c(c7F)n(C(C)C)c(=O)n8C7CCC(=O)NC7=O)CC5)CC6)nc4c3F)c12 (stereo not shown) [Compound 203, 3-[5-[4-[[9-[2-[4-(3,8-diazabicyclo[3.2.1]octan-3-yl)-7-(8-ethynyl-7-fluoro-3-hydroxy-1-naphthyl)-8-fluoro-pyrido[4,3-d]pyrimidin-2-yl]oxyethyl]-3,9-diazaspiro[5.5]undecan-3-yl]methyl]-1-piperidyl]-4-fluoro-3-isopropyl-2-oxo-benzimidazol-1-yl]piperidine-2,6-dione]",> 70,< 5.1
"C#Cc1c(F)ccc2cc(O)cc(-c3ncc4c(N5CC6CCC(C5)N6)nc(OC[C@]56CCCN5[C@H](CN5CCN(CC7CCN(c8ccc9c(c8)n(C)c(=O)n9C8CCC(=O)NC8=O)CC7)CC5)CC6)nc4c3F)c12 (stereo partly drawn) [Compound 204, 3-[5-[4-[[4-[[(3S,8R)-8-[[4-(3,8-diazabicyclo[3.2.1]octan-3-yl)-7-(8-ethynyl-7-fluoro-3-hydroxy-1-naphthyl)-8-fluoro-pyrido[4,3-d]pyrimidin-2-yl]oxymethyl]-1,2,3,5,6,7-hexahydropyrrolizin-3-yl]methyl]piperazin-1-yl]methyl]-1-piperidyl]-3-methyl-2-oxo-benzimidazol-1-yl]piperidine-2,6-dione]",> 70,< 5.1
"CCc1c(F)ccc2cc(O)cc(-c3ncc4c(N5CC6CCC(C5)N6)nc(OCCN5CCC(CC6CCN(CC7CCN(c8ccc9c(c8)n(C)c(=O)n9C8CCC(=O)NC8=O)CC7)CC6)CC5)nc4c3F)c12 (stereo not shown) [Compound 205, 3-{5-[4-({4-[(1-{2-[(4-{3,8-diazabicyclo[3.2.1]octan-3-yl}-7-(8-ethyl-7-fluoro-3-hydroxynaphthalen-1-yl)-8-fluoropyrido[4,3-d]pyrimidin-2-yl)oxy]ethyl}piperidin-4-yl)methyl]piperidin-1-yl}methyl)piperidin-1-yl]-3-methyl-2-oxo-2,3-dihydro-1H-1,3-benzodiazol-1-yl}piperidine-2,6-dione]",> 70,< 5.1
"C#Cc1c(F)ccc2cc(O)cc(-c3ncc4c(N5CC6CCC(C5)N6)nc(OCCN5CCC(CC6CCN(CC7CCN(c8ccc9c(c8F)n(C)c(=O)n9C8CCC(=O)NC8=O)CC7)CC6)CC5)nc4c3F)c12 (stereo not shown) [Compound 206, 3-{5-[4-({4-[(1-{2-[(4-{3,8-diazabicyclo[3.2.1]octan-3-yl}-7-(8-ethynyl-7-fluoro-3-hydroxynaphthalen-1-yl)-8-fluoropyrido[4,3-d]pyrimidin-2-yl)oxy]ethyl}piperidin-4-yl)methyl]piperidin-1-yl}methyl)piperidin-1-yl]-4-fluoro-3-methyl-2-oxo-2,3-dihydro-1H-1,3-benzodiazol-1-yl}piperidine-2,6-dione]",> 70,< 5.1
"CCc1c(F)ccc2cc(O)cc(-c3ncc4c(N5CC6CCC(C5)N6)nc(OC[C@@H]5C[C@@H](OC6CCN(CC7CCN(c8ccc9c(c8)n(C)c(=O)n9C8CCC(=O)NC8=O)CC7)CC6)CN5C)nc4c3F)c12 (stereo partly drawn) [Compound 207, 3-(5-{4-[(4-{[(3R,5S)-5-{[(4-{3,8-diazabicyclo[3.2.1]octan-3-yl}-7-(8-ethyl-7-fluoro-3-hydroxynaphthalen-1-yl)-8-fluoropyrido[4,3-d]pyrimidin-2-yl)oxy]methyl}-1-methylpyrrolidin-3-yl]oxy}piperidin-1-yl)methyl]piperidin-1-yl}-3-methyl-2-oxo-2,3-dihydro-1H-1,3-benzodiazol-1-yl)piperidine-2,6-dione]",> 70,< 5.1
"C#Cc1c(F)ccc2cc(O)cc(-c3ncc4c(N5CC6CCC(C5)N6)nc(OC[C@]56CCCN5[C@H](CN5CCN(CC7CCN(c8ccc9c(c8)n(C(C)C)c(=O)n9C8CCC(=O)NC8=O)CC7)CC5)CC6)nc4c3F)c12 (stereo partly drawn) [Compound 208, 3-[5-[4-[[4-[[(3S,8R)-8-[[4-(3,8-diazabicyclo[3.2.1]octan-3-yl)-7-(8-ethynyl-7-fluoro-3-hydroxy-1-naphthyl)-8-fluoro-pyrido[4,3-d]pyrimidin-2-yl]oxymethyl]-1,2,3,5,6,7-hexahydropyrrolizin-3-yl]methyl]piperazin-1-yl]methyl]-1-piperidyl]-3-isopropyl-2-oxo-benzimidazol-1-yl]piperidine-2,6-dione]",> 70,< 5.1
